“Also recorded” adds a separate entry of the source.
How the values were obtained:
[1] = (§1) Biochemical Assay: A variety of Ras proteins may be inhibited by compounds of the present invention (e.g., K-Ras, N-Ras, H-Ras, and mutants thereof at positions 12, 13 and 61, such as G12C, G12D, G12V, G12S, G13C, G13D, and Q61L, and others described herein). The purpose of this biochemical assay is to measure the ability of test compounds to covalently label nucleotide-loaded K-Ras isoforms. […] The sample is incubated at 25? C. for a time period of up to 24 hours prior to quenching by the addition of 10 uL of 5% Formic Acid. Quenched samples are centrifuged at 15000 rpm for 15 minutes in a benchtop centrifuge before injecting a 10 uL aliquot onto a reverse phase C4 column and eluting into the mass spectrometer with an increasing acetonitrile gradient in the mobile phase. Analysis of raw data may be carried out using Waters MassLynx MS software, with % bound calculated from the deconvoluted protein peaks for labeled and unlabeled K-Ras.
[2] = as §1; remark: listed apart in the source
[3] = as §1; remark: listed apart in the source
[4] = as §1; remark: listed apart in the source
[5] = as §1; remark: listed apart in the source
[6] = as §1; remark: listed apart in the source
[7] = as §1; remark: listed apart in the source

SMILES	IC50 [1]	IC50 [2]	IC50 [3]	IC50 [4]	IC50 [5]	IC50 [6]	IC50 [7]
C=CC(=O)N1CC(OC[C@H](C(=O)N[C@H]2Cc3cccc(c3)-c3ccc4c(c3)c(c(-c3cccnc3C(C)OC)n4CC(F)(F)F)CC(C)(C)COC(=O)[C@@H]3CCCN(N3)C2=O)C(C)C)C1 (some centres not stated)	in the range around 5.5 µM	in the range around 0.55 µM	in the range around 0.055 µM	in the range around 5.5 µM	in the range around 5.5 µM	in the range around 0.55 µM	in the range around 5.5 µM
C=CC(=O)N1CCO[C@H]2CN(C(=O)N(C)[C@H](C(=O)N[C@H]3C[C@H]4CN(CCO4)c4ccc5c(c4)c(c(-c4cccnc4C(C)OC)n5CC)CC(C)(C)COC(=O)[C@@H]4CCCN(N4)C3=O)C(C)C)C[C@H]21 (some centres not stated)	in the range around 5.5 µM	in the range around 0.55 µM	in the range around 0.55 µM	> 10 µM and in the range around 5.5 µM	in the range around 5.5 µM	in the range around 5.5 µM	in the range around 5.5 µM
C=CC(=O)N1CC(OC[C@H](C(=O)N[C@H]2C[C@H]3CN(CCO3)c3ccc4c(c3)c(c(-c3cccnc3C(C)OC)n4CC(F)(F)F)CC(C)(C)COC(=O)[C@@H]3CCCN(N3)C2=O)C(C)C)C1 (some centres not stated)	> 10 µM	in the range around 5.5 µM	in the range around 0.55 µM	> 10 µM	in the range around 5.5 µM	in the range around 5.5 µM	in the range around 5.5 µM
C=CC(=O)C1CC[C@H](C(=O)C(C)[C@H](C(=O)N[C@H]2Cc3nc(cs3)-c3ccc4c(c3)c(c(-c3cccnc3C(C)OC)n4CC)CC(C)(C)COC(=O)[C@@H]3CCCN(N3)C2=O)C(C)C)C1 (some centres not stated)	> 10 µM	in the range around 5.5 µM	in the range around 0.55 µM	in the range around 5.5 µM	> 10 µM	in the range around 5.5 µM	in the range around 5.5 µM
C=CC(=O)N1CC(OC[C@H](C(=O)N[C@H]2Cc3cc(cc(C(F)F)c3)-c3ccc4c(c3)c(c(-c3cccnc3C(C)OC)n4CC)CC(C)(C)COC(=O)[C@@H]3CCCN(N3)C2=O)C(C)C)C1 (some centres not stated)	> 10 µM	in the range around 5.5 µM	in the range around 5.5 µM	> 10 µM	> 10 µM	in the range around 5.5 µM	> 10 µM
COC(C)c1ncccc1-c1c2c3cc(ccc3n1CC(F)(F)F)-c1csc(n1)C[C@H](NC(=O)[C@@H](COC1CN(C(=O)C#CC(C)(C)N(C)C)C1)C(C)C)C(=O)N1CCC[C@H](N1)C(=O)OCC(C)(C)C2 (some centres not stated)	> 10 µM	in the range around 5.5 µM	< 0.01 µM	in the range around 5.5 µM	in the range around 5.5 µM	in the range around 5.5 µM	in the range around 5.5 µM
C=CC(=O)N1CCO[C@H]2CN(C(=O)N(C)[C@H](C(=O)N[C@H]3Cc4cc(C(F)F)cc(n4)-c4ccc5c(c4)c(c(-c4cccnc4C(C)OC)n5CC(F)(F)F)CC(C)(C)COC(=O)[C@@H]4CCCN(N4)C3=O)C(C)C)C[C@H]21 (some centres not stated)	in the range around 5.5 µM	in the range around 0.055 µM	in the range around 0.55 µM	in the range around 5.5 µM	in the range around 5.5 µM	in the range around 0.55 µM	in the range around 5.5 µM
COC(C)c1ncccc1-c1c2c3cc(ccc3n1CC(F)(F)F)N1CCO[C@@H](C[C@H](NC(=O)[C@@H](COC3CN(C(=O)C#CC(C)(C)N(C)C)C3)C(C)C)C(=O)N3CCC[C@H](N3)C(=O)OCC(C)(C)C2)C1 (some centres not stated)	> 10 µM	in the range around 5.5 µM	< 0.01 µM	> 10 µM	in the range around 5.5 µM	> 10 µM	> 10 µM
C=CC(=O)N1CCOC2(CCN(C(=O)N(C)[C@H](C(=O)N[C@H]3C[C@H]4CN(CCO4)c4ccc5c(c4)c(c(-c4cccnc4C(C)OC)n5CC)CC(C)(C)COC(=O)[C@@H]4CCCN(N4)C3=O)C(C)C)CC2)C1 (some centres not stated)	in the range around 5.5 µM	in the range around 0.055 µM	in the range around 0.55 µM	in the range around 5.5 µM	in the range around 0.55 µM	in the range around 0.55 µM	in the range around 0.55 µM
CCn1c(-c2cccnc2C(C)OC)c2c3cc(ccc31)-c1csc(n1)C[C@H](NC(=O)CCOC1CN(C(=O)C#CC(C)(C)N(C)C)C1)C(=O)N1CCC[C@H](N1)C(=O)OCC(C)(C)C2 (some centres not stated)	in the range around 5.5 µM	in the range around 5.5 µM	< 0.01 µM	> 10 µM and in the range around 5.5 µM	in the range around 5.5 µM	in the range around 5.5 µM	in the range around 5.5 µM
C=CC(=O)N1CC[C@H](C(=O)N(C)C(C(=O)N[C@H]2C[C@H]3CN(CCO3)c3ccc4c(c3)c(c(-c3cccnc3C(C)OC)n4CC)CC(C)(C)COC(=O)[C@@H]3CCCN(N3)C2=O)C(C)C)C1 (some centres not stated)	> 10 µM	in the range around 5.5 µM	in the range around 0.55 µM	> 10 µM	in the range around 5.5 µM	> 10 µM	in the range around 5.5 µM
CCn1c(-c2cccnc2C(C)OC)c2c3cc(ccc31)N1CCO[C@@H](C[C@H](NC(=O)[C@H](C(C)C)N(C)C(=O)C3(F)CCN(C(=O)C#CC(C)(C)N(C)C)CC3)C(=O)N3CCC[C@H](N3)C(=O)OCC(C)(C)C2)C1 (some centres not stated)	in the range around 5.5 µM	in the range around 0.55 µM	< 0.01 µM	in the range around 5.5 µM	in the range around 5.5 µM	in the range around 5.5 µM	in the range around 5.5 µM
COC(C)c1ncccc1-c1c2c3cc(ccc3n1CC(F)(F)F)-c1cccc(c1)C[C@H](NC(=O)[C@@H](COC1CN(C(=O)C#CC(C)(C)N(C)C)C1)C(C)C)C(=O)N1CCC[C@H](N1)C(=O)OCC(C)(C)C2 (some centres not stated)	> 10 µM	in the range around 5.5 µM	< 0.01 µM	> 10 µM	in the range around 5.5 µM	in the range around 5.5 µM	in the range around 5.5 µM
C=CC(=O)Nc1cnc(OC[C@H](C(=O)N[C@H]2Cc3cccc(c3)-c3ccc4c(c3)c(c(-c3cccnc3C(C)OC)n4CC)CC(C)(C)COC(=O)[C@@H]3CCCN(N3)C2=O)C(C)C)n1C (some centres not stated)	in the range around 5.5 µM	in the range around 0.055 µM	< 0.01 µM	in the range around 5.5 µM	in the range around 5.5 µM	in the range around 0.55 µM	in the range around 5.5 µM
CCn1c(-c2cccnc2C(C)OC)c2c3cc(ccc31)N1CCO[C@@H](C[C@H](NC(=O)[C@@H](COC3CCN(C(=O)C#CC(C)(C)N(C)C)CC3)C(C)C)C(=O)N3CCC[C@H](N3)C(=O)OCC(C)(C)C2)C1 (some centres not stated)	> 10 µM	in the range around 5.5 µM	in the range around 0.055 µM	> 10 µM	> 10 µM	> 10 µM	> 10 µM
C=CC(=O)N1CC[C@H](C(=O)N(C)[C@H](C(=O)N[C@H]2Cc3cc(sn3)-c3ccc4c(c3)c(c(-c3cccnc3[C@H](C)OC)n4CC)CC(C)(C)COC(=O)[C@@H]3CCCN(N3)C2=O)C(C)C)C1				in the range around 5.5 µM; also recorded: in the range around 550 nM			
CCn1c(-c2cccnc2C(C)OC)c2c3cc(ccc31)N1CCO[C@@H](C[C@H](NC(=O)[C@H](C(C)C)N(C)C(=O)C3(F)CCN(C(=O)/C=C/CN(C)C)CC3)C(=O)N3CCC[C@H](N3)C(=O)OCC(C)(C)C2)C1 (some centres not stated)	in the range around 5.5 µM	in the range around 0.55 µM	in the range around 0.055 µM	> 10 µM	in the range around 5.5 µM	in the range around 5.5 µM	in the range around 5.5 µM
CCn1c(-c2cccnc2C(C)OC)c2c3cc(ccc31)N1CCC[C@@H](C[C@H](NC(=O)[C@H](C(C)C)N(C)C(=O)[C@H]3CCN(C(=O)C#CC(C)(C)N4CCC4)C3)C(=O)N3CCC[C@H](N3)C(=O)OCC(C)(C)C2)C1 (some centres not stated)	> 10 µM	> 10 µM	in the range around 0.055 µM	> 10 µM	> 10 µM	> 10 µM	> 10 µM
C=CC(=O)Nc1ncc(C(=O)N(C)[C@H](C(=O)N[C@H]2Cc3cccc(c3)-c3ccc4c(c3)c(c(-c3cccnc3C(C)OC)n4CC)CC(C)(C)COC(=O)[C@@H]3CCCN(N3)C2=O)C(C)C)n1C (some centres not stated)	in the range around 5.5 µM	< 0.01 µM	< 0.01 µM	in the range around 5.5 µM	in the range around 5.5 µM	in the range around 0.55 µM	in the range around 5.5 µM
C=C(C)C(=O)N1CC(N(C)C(=O)N(C)[C@H](C(=O)N[C@H]2Cc3nc(cs3)-c3ccc4c(c3)c(c(-c3cccnc3[C@H](C)OC)n4CC)CC(C)(C)COC(=O)[C@@H]3CCCN(N3)C2=O)C(C)C)C1 (atropisomer, axis not shown)		in the range around 5.5 µM		in the range around 5.5 µM	in the range around 5.5 µM	in the range around 5.5 µM	in the range around 5.5 µM
C=CC(=O)N1CC(OCC(C(=O)N[C@H]2Cc3cc(cc(C(F)F)c3)-c3ccc4c(c3)c(c(-c3cccnc3C(C)OC)n4CC(F)(F)F)CC(C)(C)COC(=O)[C@@H]3CCCN(N3)C2=O)C(C)C)C1 (some centres not stated)	> 10 µM	> 10 µM	> 10 µM		> 10 µM		> 10 µM
